The source made the active and inactive calls. No cut-off for these calls is given here.
Legend:
Plasmodium falciparum [1] = experiment: Antiplasmodial activity against asynchronous blood-stage Plasmodium falciparum HB3 infected in human RBC at 30 uM after 24 hrs by Malstat assay; assay type: functional, organism-based
Plasmodium falciparum [2] = experiment: Antiplasmodial activity against asynchronous blood-stage Plasmodium falciparum HB3 infected in human RBC at 30 uM after 15 hrs by Malstat assay; assay type: functional, organism-based
Plasmodium falciparum [3] = experiment: Antiplasmodial activity against Plasmodium falciparum 3D7 clone infected in Anopheles gambiae Keele vector assessed as prevalence of […] infection at 30 uM; assay type: functional
[4] = system: Trypanosoma brucei brucei; experiment: […] activity against bloodstream form of Trypanosoma brucei 427; assay type: functional, organism-based
[5] = system: Trypanosoma brucei brucei; experiment: Trypanocidal activity against bloodstream form of Trypanosoma brucei brucei 427 assessed as lysis half-time at 5.4 uM by alamar blue assay; assay type: functional, organism-based
Plasmodium falciparum [6] = experiment: Antiplasmodial activity against asynchronous blood-stage Plasmodium falciparum HB3 infected in human RBC at 30 uM after 24 hrs by microscopy; assay type: functional, organism-based
Plasmodium falciparum [7] = experiment: Antiplasmodial activity against asynchronous blood-stage Plasmodium falciparum HB3 infected in human RBC at 30 uM after 18 hrs by Malstat assay; assay type: functional, organism-based
Homo sapiens = species: Homo sapiens; experiment: Toxicity in human RBC assessed as induction of hemolysis at 1 to 30 uM
Plasmodium falciparum [8] = experiment: Antiplasmodial activity against asynchronous blood-stage Plasmodium falciparum HB3 infected in human RBC at 30 uM after 21 hrs by Malstat assay; assay type: functional, organism-based

| Compound | Activity (Plasmodium falciparum [1]) | Activity (Plasmodium falciparum [2]) | Activity (Plasmodium falciparum [3]) [%] | IC50 [4] [µM] | Activity [5] | Activity (Plasmodium falciparum [6]) | Activity (Plasmodium falciparum [7]) | Activity (Homo sapiens) | Activity (Plasmodium falciparum [8]) |
| --- | --- | --- | --- | --- | --- | --- | --- | --- | --- |
| CC[C@H](C)[C@H](NC(=O)[C@H](CCCCN)NC(=O)[C@H](CCCCN)NC(=O)[C@H](C)NC(=O)[C@H](CC(C)C)NC(=O)[C@H](C)NC(=O)[C@H](C)NC(=O)[C@H](CC(C)C)NC(=O)[C@H](C)NC(=O)[C@H](CCCCN)NC(=O)[C@H](CC(C)C)NC(=O)[C@H](CC(N)=O)NC(=O)[C@@H](NC(=O)[C@H](CCCCN)NC(=O)CNC(=O)[C@H](CC(C)C)NC(=O)[C@H](CC(C)C)NC(=O)[C@H](Cc1ccc(O)cc1)NC(=O)CNC(=O)[C@H](C)N)[C@@H](C)CC)C(=O)N[C@@H](CC(C)C)C(=O)O | Active | Active | 30 | 2.7 | Active | Active | Active | Non-toxic | Active |
| H-LLIILRRRIRKQAHAHSK-OH | inactive | – | 44 | – | – | inactive | – | – | – |

From ChEMBL document CHEMBL1275472, “Cell-penetrating peptide TP10 shows broad-spectrum activity against both Plasmodium falciparum and Trypanosoma brucei brucei” (Antimicrob Agents Chemother, 2008)
